Source: patent US7968558B2, “Amidine derivatives of 2-heteroaryl-quinazolines and quinolines; potent analgesics and anti-inflammatory agents” (Rottapharm S.p.A., priority 2006, dated 2011)
Counter-ions that a name gives are not always drawn. Like-named read-outs stand apart in the source and are kept apart here.

How the values were obtained:
[1] = tested on: formalin-induced paw licking; assay: Formalin (licking) test; type: in vivo, mice; settings: for ED50: Mus musculus, ip
Method: The formalin test is increasingly used as a model of injury-produced pain (FV. Abbott, Pain, 1995, 60, 91-102). The procedure used for the evaluation of the compounds of the invention was similar to that reported by literature (S. Hunskaar, Pain, 1987, 30, 103-104), and consisted of the injection of 20 μl of 1% solution of formalin dissolved in distilled water, in the plantar surface of the right hind paw of the mice. Immediately, the animals were placed individually in an observation chamber. The amount of time that the animal spent licking the injected paw, considered indicative of pain, was recorded during 30 min. following formalin injection. The initial nociceptive scores normally peaked 5 min after formalin injection (early phase) and 15-30 min. after formalin injection (late phase), representing both the neurogenic and inflammatory pain responses respectively.
Animals were treated i.p. with an aqueous solution of the tested compound (doses: 3, 10, 30 mg/Kg), 1 hour before the formalin injection. Control animals received only the vehicle.
In Table 8, the analgesic effect elicited in this test by a representative compound of Formula (I), is expressed as ED50 both for the early and late phase, and compared with the performance of the standard reference, paracetamol.

[2] = tested on: Zymosan-induced mechanical hyperalgesia; assay: Zymosan-induced mechanical hyperalgesia (Randall-Selitto); type: in vivo, rat; settings: for ED50: Rattus norvegicus, read-out: Analgesia ED50; for Analgesia ED100: calculated from linear dose-response
Method: (§1) The interplantar injection of Zymosan-induced mechanical hyperalgesia was used as a model of inflammatory pain (Meller, Neuropharmacology, 1994, 33, 1471-1478). In this model, typically a male Sprague-Dawley or Wistar rat (200-250 g) receives an interplantar injection of 3 mg/100 μl zymosan into one hind paw. A marked inflammation occurs in this hind paw. Drugs are administered orally for evaluation of efficacy, 30 min. before the inflammatory insult. The hyperalgesia induced by zymosan administration was evaluated using the Randall-Selitto method (Arch. Int. Pharmacodyn., 1957, 111, 409). The quantitation of the analgesic effect is achieved by an analgesimeter, which consist in applying to the inflamed paw an increasing weight (from 130-140 g up to 500 g). The difference in the mechanical pain threshold between the basal value (generally 230-250 g) and the one tolerated by the animals treated with the drug, determined 4 hours after the inflammatory challenge, is defined as mechanical hyperalgesia.
(§2) Mechanical hyperalgesia is expressed for the compounds of the invention as ED50, which is the dose of the administered compound able to increase the pain threshold by 50% in comparison with the group of control animals. The corresponding ED100, representing the dose able of reducing of 100% the pain threshold, can be calculated for those cases where there is a linear dose-response relationship. In vivo anti-inflammatory effect exerted by the compound of the invention can be assessed in the same Zymosan induced inflammation test described above, by measuring the volume of the oedema induced by the inflammatory agent. The oedema was evaluated as the increase in the volume of the Zymosan injected paw within a time of 0-2 hrs. The measurements of the variation of the oedema volume of the paw were recorded using hydroplethysmometer, which consists of two plastic cuvettes containing a surfactant liquid, the larger one being used for immersion of the paw, connected to the smaller one which contains a trans-ducer capable of recording small displacements of the volume used for the measure. The paw is immersed in the cuvettes up to the tibiotarsal joint. The volume of the liquid displaced is proportional to the extent of the inflammation. The efficacy of the compounds of the invention in preventing oedema formation is expressed as ED30, and is measured 2 hours after the inflammatory challenge, and represents the dose able of reducing of 30%, the Zymosan induced paw volume increase in comparison to control animals (animals treated with Zymosan but treated with only distilled water instead of the testing compound). The corresponding ED50, representing the dose able of reducing of 50% the zymosan induced paw volume increase, can be calculated for those cases where there is a linear dose-response relationship.
(§3) In both the experiments, for each test compound, at least three doses were used, with 10 animals per group. Compounds of the invention were tested at 10, 20 and 40 mg/Kg.

[3] = tested on: Zymosan induced paw volume increase; assay: Zymosan-induced paw oedema; type: in vivo, rat; settings: for ED50: Rattus norvegicus, read-out: Oedema Reduction ED50; for Oedema Reduction ED30: 2 hours after challenge
Method: as §1, §2, §3

[4] = tested on: CFA-induced hyperalgesia; assay: CFA model of chronic inflammatory pain; type: in vivo, rat
[5] = tested on: mechanical hyperalgesia associated with STZ-induced diabetes; assay: STZ-induced diabetes mechanical hyperalgesia (neuropathic pain); type: in vivo, rat
Method: Streptozotocin (STZ)-induced diabetes in the rat has been increasingly used as a model of painful diabetic neuropathy to assess the efficacies of potential analgesic agents (C. Courteix, Pain 1993, 53, 81-8). The compounds of the invention were tested for efficacy in reducing mechanical hyperalgesia associated with STZ-induced diabetes in the rat, according to the experimental model as described by the literature. Diabetes was produced with the injection of a single dose (75 mg/Kg i.p.) of STZ. In the following four weeks after the induction of diabetes the clinical symptoms (weight, body and skin temperature, motility and hyperglycemia) progressively developed by the animals, are strictly monitored. After four weeks, the scores obtained in diabetic rats to various pain stimuli (in particular mechanical stimuli) were grater than those in normal rats, indicating hyperalgesia. The hyperalgesia induced by diabetes was evaluated using the Randall-Selitto method as above described, and quantitated using the analgesimeter. Also in this case, the difference in the mechanical pain threshold between the basal value (generally 230-250 g) and the one tolerated by the animals treated with the drug, is defined as mechanical hyperalgesia. The compounds of the invention were administered i.p. (solution, Tween 80, 10% in saline) at different doses, and mechanical hyperalgesia was measured at the reported time, as maximum percent effect (MPE) which represents the difference (%) in pain threshold between the animals treated with the drug and the controls that received only the vehicle, compared with the weight borne by naïf non-diabetic controls. A 100% protection means that the diabetic animals treated with the compound can tolerate the same stimulus (weight) as the naïf non-diabetic animals. MPE higher than 100% means that the diabetic animal treated with the compound can tolerate stimuli (weight) higher than the control non-diabetic animals (hypoalgesia).

[6] = tested on: acetic acid-induced abdominal writhes; assay: Acetic acid-induced writhing test; type: in vivo, mice
Method: With the aim of assessing whether the compounds of the invention are able to inhibit responses to peritoneal irritation-induced visceral pain, the acetic acid-induced writhing assay was used in mice to determine the degree of anti-nociception.
The writhing test is a model of inflammatory pain that has long been used as a screening tool for evaluation of analgesic and anti-inflammatory agents (HDJ Collier, B. J. Pharmacol Chemother., 1968, 32, 295-310). The test was performed inducing nociception by an i.p. injection of acetic acid 1%, 0.1 mL/10 g of body weight. Mice were pre-treated (subcutaneously, s.c., three different doses: 3, 10, 30 mg/Kg) with the tested compounds 30 min. before acetic acid injection, while control animals received a similar volume of saline solution. A group of mice was treated with Paracetamol (200 mg/Kg, s.c.) as reference drug. The number of abdominal writhes (full extension of both hind paws) was cumulatively counted every 5 minutes over a period of 20 min. immediately after the acetic acid injection. The anti-nociceptive activity was expressed as inhibition of abdominal writhes as maximum percent effect (MPE), which represents the difference (%) in pain threshold between the animals treated with the drug and the ones that received only the vehicle.

[7] = oral, 30 min before zymosan, 4 hours after challenge
[8] = oral, calculated from linear dose-response

## CN1CC[C@]23c4c5ccc(O)c4O[C@H]2[C@@H](O)C=C[C@H]3[C@H]1C5 [Morphine]
[1]; read-out: Analgesic effect ED50 (mg/Kg) Early phase
  ED50: 4 mg/kg
[1]; read-out: Analgesic effect ED50 (mg/Kg) Late phase
  ED50: 4 mg/kg

## CC(=N)Nc1ccc2nc(-c3ccc4c(c3)CCO4)ncc2c1 [Example 4, N-[2-(2,3-dihydro-benzofuran-5-yl)quinazolin-6-yl]acetamidine dihydrochloride hemihydrate]
[2]
  ED50: 5.8 mg/kg
[2]; oral
  Analgesia ED100: 17 mg/kg
[3]; po
  ED50: 170 mg/kg
[3]; oral
  Oedema Reduction ED30: 25 mg/kg
[4]; 3 mg/Kg i.p.
  MPE 1.5 hrs.: 44%
[4]; 10 mg/Kg i.p.
  MPE 0.5 hrs.: 47%
  MPE 1.5 hrs.: 27%
  MPE 3 hrs.: 25%
  MPE 6 hrs.: 66%
  MPE 24 hrs.: 57%
[4]; 30 mg/Kg i.p.
  MPE 0.5 hrs.: 243%
  MPE 1.5 hrs.: 270%
  MPE 3 hrs.: 170%
  MPE 6 hrs.: 103%
  MPE 24 hrs.: 76%
[5]; 3 mg/Kg i.p.
  MPE 0.5 hrs.: 56%
  MPE 1.5 hrs.: 15%
[5]; 10 mg/Kg i.p.
  MPE 0.5 hrs.: 78%
  MPE 1.5 hrs.: 24%
[5]; 30 mg/Kg i.p.
  MPE 0.5 hrs.: 163%
  MPE 1.5 hrs.: 74%
[6]; 3 mg/Kg s.c., 30 min. before acetic acid
  MPE (%): 18%
[6]; 10 mg/Kg s.c., 30 min. before acetic acid
  MPE (%): 41%
[6]; 30 mg/Kg s.c., 30 min. before acetic acid
  MPE (%): 36%
[6]; Mus musculus, sc
  ED50: 59.6 mg/kg

## COc1cccc(C2(O)CCCCC2CN(C)C)c1 (centres unmarked) [Tramadol, reference compound]
[2]
  ED50: 25.7 mg/kg
[2]; oral
  Analgesia ED100: 405 mg/kg
[5]; 3 mg/Kg i.p.
  MPE 0.5 hrs.: 26%
  MPE 1.5 hrs.: 53%
  MPE 3 hrs.: 7%
[5]; 10 mg/Kg i.p.
  MPE 0.5 hrs.: 58%
  MPE 1.5 hrs.: 48%
  MPE 3 hrs.: 27%
[5]; 30 mg/Kg i.p.
  MPE 0.5 hrs.: 54%
  MPE 1.5 hrs.: 64%
  MPE 3 hrs.: 23%
[5]; 50 mg/Kg i.p.
  MPE 0.5 hrs.: 81%
  MPE 1.5 hrs.: 60%
  MPE 3 hrs.: 43%

## CN(C)CCC=C1c2ccccc2CCc2ccccc21 [Amitriptyline, reference compound]
[5]; 1 mg/Kg i.p.
  MPE 0.5 hrs.: 72%
  MPE 1.5 hrs.: 89%
[5]; 3 mg/Kg i.p.
  MPE 0.5 hrs.: 44%
  MPE 1.5 hrs.: 40%
  MPE 3 hrs.: 5%
[5]; 10 mg/Kg i.p.
  MPE 0.5 hrs.: 68%
  MPE 1.5 hrs.: 77%
[5]; 30 mg/Kg i.p.
  MPE 0.5 hrs.: 65%
  MPE 1.5 hrs.: 69%
  MPE 3 hrs.: 23%

## Cc1ccc(-c2cc(C(F)(F)F)nn2-c2ccc(S(N)(=O)=O)cc2)cc1 [Celecoxib, reference compound]
[2]; [7]
  ED50: 9 mg/kg
[2]; oral
  Analgesia ED100: 1172 mg/kg
[3]; [8]
  ED50: 644 mg/kg
[3]; oral
  Oedema Reduction ED30: 13.8 mg/kg

## CC(=O)Nc1ccc(O)cc1 [Paracetamol]
[6]; 200 mg/Kg s.c.
  MPE (%): 61%
[1]; 1 hour before formalin, early phase, read-out: Analgesic effect ED50 (mg/Kg) Early phase
  ED50: 230 mg/kg
[1]; 1 hour before formalin, late phase, read-out: Analgesic effect ED50 (mg/Kg) Late phase
  ED50: 107 mg/kg

## CN1C(C(=O)Nc2ccccn2)=C(O)c2ccccc2S1(=O)=O [Piroxicam, reference compound]
[4]; 30 mg/Kg i.p.
  MPE 0.5 hrs.: 102%
  MPE 1.5 hrs.: 111%
  MPE 3 hrs.: 54%
  MPE 6 hrs.: 24%
  MPE 24 hrs.: 38%

## COc1ccc2c(c1)c(CC(=O)O)c(C)n2C(=O)c1ccc(Cl)cc1 [Indomethacine]
[1]; i.p., 1 hour before formalin, late phase
  Analgesic effect ED50 (mg/Kg) Late phase: 10 mg/kg

## CS(=O)(=O)Nc1ccc([N+](=O)[O-])cc1Oc1ccccc1 [Nimesulide, reference compound]
[2]; [7]
  ED50: 7.4 mg/kg
[2]; oral
  Analgesia ED100: 161 mg/kg
[3]; [8]
  ED50: 33.4 mg/kg
[3]; oral
  Oedema Reduction ED30: 0.5 mg/kg
